The source of these data is patent US7297700B2, “Bicycloheteroaryl compounds as P2X7 modulators and uses thereof” (Renovis, Inc., priority 2005, dated 2007).

The subject of this test is IL-1β release from THP-1 cells. Description: IL-1β Release Assay (Alternate Method), THP-1 cells. The class given is cell-based, human. The following applies: at 0.3 μM; THP-1 cells. The procedure: THP-1 cells (ATCC Cat #285-IF-100) are plated in 96 well plates at a concentration of 200,000 cells per well and allowed to differentiate in RPMI-1640 media (ATCC Cat #30-2001) containing 10% FBS, 100 IU/mL penicillin, 100 ug/mL streptomycin, 100 ng/mL LPS and 100 ng/mL IFN-γ for 16 hours. Following differentiation, the cells are treated for an additional 2 hours in RPMI-1640 media containing 100 IU/mL penicillin, 100 ug/mL streptomycin and fresh LPS at 100 ng/mL. The cells are then pretreated for 30 minutes with the compound of interest at the appropriate concentration in RPMI media containing 100 IU/mL penicillin, 100 ug/mL streptomycin. Following the pretreatment 2′, 3′-O-(4-benzoylbenzoyl)-adenosine 5′-triphosphate (Sigma Aldrich Cat#B6396) is added to a final concentration of 250 uM and the cells incubated for an additional 45 minutes. 30 uL of cell supernatant is then collected and IL-1β levels determined via ELISA (R&D systems Cat. #HSLB50) according to manufacturer's recommendations using the Tecan Safire plate reader. Background adjusted IL-1β levels of drug treated and non-treated cells are used to calculate the percent inhibition.
For `CN(CCO)c1ccc(CN2CCc3c(ncnc3NC(=O)CC34CC5CC(CC(C5)C3)C4)C2)cc1` [Compound 89], the IL-1β % inhibition entry was “+ (compound exhibited 0-25% inhibition at 0.3 μM)”.

Consider `O=C(CC12CC3CC(CC(C3)C1)C2)Nc1ncnc2c1CCN(Cc1cccc3c1OC(F)(F)O3)C2` [Compound 90], for which the IL-1β % inhibition entry is recorded as “+ (compound exhibited 0-25% inhibition at 0.3 μM)”.

For `NC(=O)COc1ccc(CN2CCc3c(ncnc3NC(=O)CC34CC5CC(CC(C5)C3)C4)C2)cc1` [Compound 91], the IL-1β % inhibition entry is “+ (compound exhibited 0-25% inhibition at 0.3 μM)”.

For the compound `O=C(CC1CCCCCC1)Nc1ncnc2c1CCN(Cc1cccnc1)C2` [Compound 93], the IL-1β % inhibition result is given as “+ (compound exhibited 0-25% inhibition at 0.3 μM)”.

On to `O=C(CC1CCCCCC1)Nc1ncnc2c1CCN(Cc1ccccn1)C2` [Compound 94], for which the IL-1β % inhibition result was “+ (compound exhibited 0-25% inhibition at 0.3 μM)”.

For `COc1ccc(CN2CCc3c(ncnc3NC(=O)CC34CC5CC(CC(C5)C3)C4)C2)c(F)c1` [Compound 95], the IL-1β % inhibition result is listed as “++++ (compound exhibited 75% or greater inhibition at 0.3 μM)”.

As to `O=C(CC12CC3CC(CC(C3)C1)C2)Nc1ncnc2c1CCN(Cc1cc(F)ccc1C(F)(F)F)C2` [Compound 96], the IL-1β % inhibition entry is listed as “+ (compound exhibited 0-25% inhibition at 0.3 μM)”.

With `O=C(CC12CC3CC(CC(C3)C1)C2)Nc1ncnc2c1CCN(Cc1ccc(C(F)(F)F)c(F)c1)C2` [Compound 97], the IL-1β % inhibition result is given as “++ (compound exhibited 25-50% inhibition at 0.3 μM)”.

Consider `O=C(CC12CC3CC(CC(C3)C1)C2)Nc1ncnc2c1CCN(Cc1ccc(-n3ccnc3)cc1)C2` [Compound 98], for which the IL-1β % inhibition entry is listed as “++ (compound exhibited 25-50% inhibition at 0.3 μM)”.

With `O=C(CC12CC3CC(CC(C3)C1)C2)Nc1ncnc2c1CCN(Cc1ccc(OCCO)cc1)C2` [Compound 99], the IL-1β % inhibition result is given as “+ (compound exhibited 0-25% inhibition at 0.3 μM)”.

As for `O=C(CC12CC3CC(CC(C3)C1)C2)Nc1ncnc2c1CCN(Cc1ccccc1OCCO)C2` [Compound 100], the IL-1β % inhibition result was “++ (compound exhibited 25-50% inhibition at 0.3 μM)”.

Turning to `O=C(CC12CC3CC(CC(C3)C1)C2)Nc1ncnc2c1CCN(Cc1cccc(OCCO)c1)C2` [Compound 101], the IL-1β % inhibition result is reported as “++ (compound exhibited 25-50% inhibition at 0.3 μM)”.

Take `COc1ccc(F)cc1CN1CCc2c(ncnc2NC(=O)CC23CC4CC(CC(C4)C2)C3)C1` [Compound 102]: the IL-1β % inhibition result is “+ (compound exhibited 0-25% inhibition at 0.3 μM)”.

Turning to `COc1cc(CN2CCc3c(ncnc3NC(=O)CC34CC5CC(CC(C5)C3)C4)C2)ccc1F` [Compound 103], the IL-1β % inhibition entry is given as “+ (compound exhibited 0-25% inhibition at 0.3 μM)”.

Turning to `COc1ccc(F)c(CN2CCc3c(ncnc3NC(=O)CC34CC5CC(CC(C5)C3)C4)C2)c1` [Compound 104], the IL-1β % inhibition result is on record as “+++ (compound exhibited 50-75% inhibition at 0.3 μM)”.

As to `O=C(CC12CC3CC(CC(C3)C1)C2)Nc1ncnc2c1CCN(Cc1ccc3c(c1)CCO3)C2` [Compound 105], the IL-1β % inhibition entry is recorded as “+ (compound exhibited 0-25% inhibition at 0.3 μM)”.

On to `O=C(CC12CC3CC(CC(C3)C1)C2)Nc1ncnc2c1CCN(Cc1ccc(F)c(C(F)(F)F)c1)C2` [Compound 106], for which the IL-1β % inhibition entry is “+ (compound exhibited 0-25% inhibition at 0.3 μM)”.

For `O=C(CC12CC3CC(CC(C3)C1)C2)Nc1ncnc2c1CCN(Cc1ccc(F)cc1C(F)(F)F)C2` [Compound 107], the IL-1β % inhibition entry is listed as “+ (compound exhibited 0-25% inhibition at 0.3 μM)”.

In the case of `O=C(CC12CC3CC(CC(C3)C1)C2)Nc1ncnc2c1CCN(Cc1cc(F)cc(C(F)(F)F)c1)C2` [Compound 108], the IL-1β % inhibition entry is recorded as “+ (compound exhibited 0-25% inhibition at 0.3 μM)”.

As for `O=C(CC12CC3CC(CC(C3)C1)C2)Nc1ncnc2c1CCN(Cc1cc(C(F)(F)F)ccc1F)C2` [Compound 109], the IL-1β % inhibition entry is “++ (compound exhibited 25-50% inhibition at 0.3 μM)”.

`O=C(CC12CC3CC(CC(C3)C1)C2)Nc1ncnc2c1CCN(Cc1ccc(C(F)(F)F)cc1F)C2` [Compound 110]: the IL-1β % inhibition entry is given as “+ (compound exhibited 0-25% inhibition at 0.3 μM)”.

For the compound `O=C(CC12CC3CC(CC(C3)C1)C2)Nc1ncnc2c1CCN(Cc1c(F)cccc1C(F)(F)F)C2` [Compound 111], the IL-1β % inhibition result is given as “++ (compound exhibited 25-50% inhibition at 0.3 μM)”.

For `Cc1ccc(CN2CCc3c(ncnc3NC(=O)CC34CC5CC(CC(C5)C3)C4)C2)c2ccccc12` [Compound 112], the IL-1β % inhibition entry was “+ (compound exhibited 0-25% inhibition at 0.3 μM)”.

Turning to `CC(C)Oc1ccc(CN2CCc3c(ncnc3NC(=O)CC34CC5CC(CC(C5)C3)C4)C2)cc1` [Compound 113], the IL-1β % inhibition entry is “+ (compound exhibited 0-25% inhibition at 0.3 μM)”.

`O=C(CC12CC3CC(CC(C3)C1)C2)Nc1ncnc2c1CCN(Cc1cccc(OC(F)(F)F)c1)C2` [Compound 114]: the IL-1β % inhibition entry is recorded as “+ (compound exhibited 0-25% inhibition at 0.3 μM)”.

Consider `O=C(O)C=Cc1ccc(CN2CCc3c(ncnc3NC(=O)CC34CC5CC(CC(C5)C3)C4)C2)cc1` [Compound 115], for which the IL-1β % inhibition result is given as “+ (compound exhibited 0-25% inhibition at 0.3 μM)”.

Consider `CSc1ccc(CN2CCc3c(ncnc3NC(=O)CC34CC5CC(CC(C5)C3)C4)C2)cc1` [Compound 116], for which the IL-1β % inhibition result is “+ (compound exhibited 0-25% inhibition at 0.3 μM)”.

Turning to `COc1cc(CN2CCc3c(ncnc3NC(=O)CC34CC5CC(CC(C5)C3)C4)C2)ccc1O` [Compound 117], the IL-1β % inhibition result is listed as “+ (compound exhibited 0-25% inhibition at 0.3 μM)”.

Take `Cc1cccc(CN2CCc3c(ncnc3NC(=O)CC34CC5CC(CC(C5)C3)C4)C2)n1` [Compound 118]: the IL-1β % inhibition entry is “+ (compound exhibited 0-25% inhibition at 0.3 μM)”.

Take `COc1ccc(CN2CCc3c(ncnc3NC(=O)CC34CC5CC(CC(C5)C3)C4)C2)cc1F` [Compound 119]: the IL-1β % inhibition result is listed as “++ (compound exhibited 25-50% inhibition at 0.3 μM)”.

For the compound `O=C(CC12CC3CC(CC(C3)C1)C2)Nc1ncnc2c1CCN(Cc1ccccc1C(F)(F)F)C2` [Compound 120], the IL-1β % inhibition entry is “+ (compound exhibited 0-25% inhibition at 0.3 μM)”.

`O=C(CC12CC3CC(CC(C3)C1)C2)Nc1ncnc2c1CCN(CC1CCCC1)C2` [Compound 121]: the IL-1β % inhibition entry is reported as “+ (compound exhibited 0-25% inhibition at 0.3 μM)”.

With `O=C(CC12CC3CC(CC(C3)C1)C2)Nc1ncnc2c1CCN(CC1CCCCC1)C2` [Compound 122], the IL-1β % inhibition entry is given as “+ (compound exhibited 0-25% inhibition at 0.3 μM)”.

Take `O=C(CC12CC3CC(CC(C3)C1)C2)Nc1ncnc2c1CCN(Cc1ccc(F)cc1)C2` [Compound 123]: the IL-1β % inhibition result is listed as “+ (compound exhibited 0-25% inhibition at 0.3 μM)”.

In the case of `Cc1ccc(CN2CCc3c(ncnc3NC(=O)CC3CCCCCC3)C2)s1` [Compound 125], the IL-1β % inhibition entry is listed as “+ (compound exhibited 0-25% inhibition at 0.3 μM)”.

In the case of `O=C(CC1CCCCCC1)Nc1ncnc2c1CCN(Cc1c[nH]cn1)C2` [Compound 126], the IL-1β % inhibition result is “+ (compound exhibited 0-25% inhibition at 0.3 μM)”.

For the compound `O=C(CC1CCCCCC1)Nc1ncnc2c1CCN(CC1CCCCC1)C2` [Compound 127], the IL-1β % inhibition result was “+ (compound exhibited 0-25% inhibition at 0.3 μM)”.

In the case of `O=C(CC1CCCCCC1)Nc1ncnc2c1CCN(CC1CCCC1)C2` [Compound 128], the IL-1β % inhibition entry was “+ (compound exhibited 0-25% inhibition at 0.3 μM)”.
